Experimental data published in patent publication USRE47493E1, “Substituted bicyclic dihydropyrimidinones and their use as inhibitors of neutrophil elastase activity” (Boehringer Ingelheim International GmbH, priority 2014, dated 2019).

Key:
[1] = Assay for the Determination of Metabolic Stability with Human Hepatocytes; format: in vitro ADME; details: scaled with well stirred model
Experimental: Assay for the Determination of Metabolic Stability with Human Hepatocytes
The metabolic degradation of the test compound is assayed in a human hepatocyte suspension. Human hepatocytes (typically cryopreserved) are incubated in an appropriate buffer system (e.g. Dulbecco's modified eagle medium plus 3.5 μg glucagon/500 mL, 2.5 mg insulin/500 mL and 3.75 mg/500 mL hydrocortison) containing 5% species serum. Following a (typically) […] preincubation in an incubator (37° C., 10% CO2), 5 μl of test compound solution (80 μM; from 2 mM stock solution in DMSO diluted 1:25 with medium) are added into 395 μl hepatocyte suspension (cell density in the range 0.25-5*10^6 cells/mL, typically 1*10^6 cells/mL; final concentration of test compound 1 μM, final DMSO concentration […]). The cells are incubated for six hours (incubator, orbital shaker) and samples (25 μl) are taken at 0, 0.5, 1, 2, 4 and 6 hours. Samples are transferred into acetonitrile and pelleted by centrifugation (5 min). The supernatant is transferred to a new 96-deepwell plate, evaporated under nitrogen and resuspended. The decline of parent compound is analyzed by LC-MS/MS.
The intrinsic clearance CL_[…] is calculated as follows: CL_[…]=Dose/AUC=(C0/CD)/(AUD+clast/k)*1′000/60 (C0: initial concentration in the incubation [μM], CD: cell density of vital cells [10^6 cells/mL], AUD: area under the data [μM*h], clast: concentration of last data point [μM], k: slope of the regression line for parent decline [h^−1])
The calculated in vitro hepatic intrinsic clearance can be scaled up to the intrinsic in vivo hepatic clearance and used to predict hepatic in vivo blood clearance (CL) by the use of a is liver model (well stirred model): CL_[…]_INVIVO [ml/min/kg]=(CL_[…] [μL/min/10^6 cells]* hepatocellularity[10^6 cells/g liver]*liver factor[g/kg bodyweight])/1′000 CL[ml/min/kg]=CL_[…]_INVIVO [ml/min/kg]*hepatic blood flow [ml/min/kg]/(CL_[…]_INVIVO [ml/min/kg]+hepatic blood flow [ml/min/kg]) Qh[%]=CL[ml/min/kg]/hepatic blood flow[ml/min/kg]) (Hepatocellularity, human: 120*10^6 cells/g liver; lver factor, human: 25.7 g/kg bodyweight; blood flow, human: 21 ml/(min*kg))
The predicted human hepatic in vivo blood clearance (CL) of selected compounds in the metabolic stability assay described above are listed in Table 16.

[2] = Assay for Determination of Drug Transport Across Human CACO-2 Cells; format: in vitro ADME; details: human; for efflux ratio at 2 h, 10 nM: pH 7.2, Caco-2, PEBA/PEAB; for Papp A→B at 10 nM: Caco-2, apical-to-basal, read-out: PEAB; for Papp A→B at 10 nM / Papp B→A at 10 nM: pH 7.2, 37° C.; for Papp B→A at 10 nM: Caco-2, basal-to-apical, read-out: PEBA
From the text: Assay for Determination of Drug Transport Across Human CACO-2 Cells
The assay provides information on the potential of a compound to pass the cell membrane, on the extent of oral absorption as well as on whether the compound is actively transported by uptake and/or efflux transporters. For the measurement of permeability across polarized, confluent human cancer colon carcinoma cells 2 (Caco-2) cell monolayers grown on permeable filter supports are used as the in vitro absorption model. Apparent permeability coefficients (PE) of the compounds across the Caco-2 monolayers are measured (pH 7.2, 37° C.) in apical-to-basal (AB) (absorptive) and basal-to-apical (BA) (secretory) transport direction. AB permeability (PEAB) represents drug absorption from the intestine into the blood and BA permeability (PEBA) drug secretion from the blood back into the intestine via both passive permeability as well as active transport mechanisms mediated by efflux and uptake transporters that are expressed on the Caco-2 cells. The compounds are assigned to permeability/absorption classes by comparison of the AB permeabilities with the AB permeabilities of reference compounds with known in vitro permeability and oral absorption in the human. Identical or similar permeabilities in both transport directions indicate passive permeation, vectorial permeability points to additional active transport mechanisms. […] Active transport is concentration-dependently saturable.
Caco-2 cells (1−2*10^5 cells/cm^2 area) are seeded on filter inserts (Costar transwell polycarbonate or PET filters, […] pore size) and cultured (DMEM) for 10 to 25 days. Compounds are dissolved in appropriate solvent (like DMSO, 1-20 mM stock solutions). Stock solutions are diluted with HTP-4 buffer (128.13 mM NaCl, 5.36 mM KCl, 1 mM MgSO4, 1.8 mM CaCl2, 4.17 mM NaHCO3, 1.19 mM Na2HPO4×7H2O, 0.41 mM NaH2PO4×H2O, 15 mM HEPES, 20 mM glucose, pH 7.2) to prepare the transport solutions (typically […] compound, final DMSO <=0.5%). The transport solution (TL) is applied to the apical or basolateral donor side for measuring A-B or B-A permeability (3 filter replicates), respectively. The receiver side contains HTP-4 buffer supplemented with 2% BSA. Samples are collected at the start and end of experiment from the donor and at various time intervals for up to 2 hours also from the receiver side for concentration measurement by LC-MS/MS or scintillation counting. Sampled receiver volumes are is replaced with fresh receiver solution.
The apparent permeability coefficients (PEAB and PEBA) and efflux ratios (PEBA/PEAB) of selected compounds in the Caco-2 drug transport assay described above are listed in Table 17.

For `CS(=O)(=O)c1cc(C#N)ccc1[C@H]1NC(=O)N(c2cccc(C(F)(F)F)c2)C2=C1C(=O)CCC2` (single isomer, unassigned) [Example 18A], the “CL (predicted human hepatic in vivo blood clearance)” value [1] was 0 mL/min/kg, the efflux ratio at 2 h, 10 nM [2] was 4.2 and the Papp A→B at 10 nM [2] was 20.9 ×10⁻⁶ cm/s. It also gave a Papp B→A at 10 nM [2] of 88.2 ×10⁻⁶ cm/s.
With `CS(=O)(=O)c1cc(C#N)ccc1[C@H]1NC(=O)N(c2cccc(C(F)F)c2)C2=C1C(=O)CCC2` (single isomer, unassigned) [Example 19A] the “CL (predicted human hepatic in vivo blood clearance)” value [1] was 0 mL/min/kg, the efflux ratio at 2 h, 10 nM [2] was 6.7 and the Papp A→B at 10 nM [2] was 11.4 ×10⁻⁶ cm/s. The Papp B→A at 10 nM [2] was 76.7 ×10⁻⁶ cm/s.
With `CNC(=O)N1C(=O)N(c2cccc(C(F)(F)F)c2)C2=C(C(=O)CCC2)[C@H]1c1ccc(C#N)cc1S(C)(=O)=O` (single isomer, unassigned) [Example 47A] the “CL (predicted human hepatic in vivo blood clearance)” value [1] was 0 mL/min/kg, the efflux ratio at 2 h, 10 nM [2] was 5.4 and the Papp A→B at 10 nM [2] was 9.86 ×10⁻⁶ cm/s. The Papp B→A at 10 nM [2] was 53.5 ×10⁻⁶ cm/s.
With `CCS(=O)(=O)c1cc(C#N)ccc1[C@H]1NC(=O)N(c2cccc(C(F)(F)F)c2)C2=C1C(=O)CCC2` (single isomer, unassigned) [Example 54A] the “CL (predicted human hepatic in vivo blood clearance)” value [1] was 2 mL/min/kg, the efflux ratio at 2 h, 10 nM [2] was 2.4 and the Papp A→B at 10 nM [2] was 26 ×10⁻⁶ cm/s. It also gave a Papp B→A at 10 nM [2] of 61.7 ×10⁻⁶ cm/s.
With `CC(C)(O)CNC(=O)N1C(=O)N(c2cccc(C(F)(F)F)c2)C2=C(C(=O)CCC2)C1c1ccc(C#N)cc1` (centres unmarked) [Example 70.9] the “CL (predicted human hepatic in vivo blood clearance)” value [1] was 0 mL/min/kg, the efflux ratio at 2 h, 10 nM [2] was 3.2 and the Papp A→B at 10 nM [2] was 30.3 ×10⁻⁶ cm/s. The Papp B→A at 10 nM [2] was 96.1 ×10⁻⁶ cm/s.
